According to patent US20110033946A1, “DETECTION OF SHORT-CHAIN FATTY ACIDS IN BIOLOGICAL SAMPLES” (HEMAQUEST PHARMACEUTICALS, INC., priority 2009, published 2011):
Where “and” joins values, the source holds several entries; their conditions need not be identical. Identical values can stand only once. Like-named read-outs stand apart in the source and are kept apart here.

Key:
[1] = Long-term freezer stability in dog plasma; assay type: physicochemical; details: approximately −70° C.
Experimental: For the remaining validation tests, a calibration curve and triplicates QCs at the low, mid and high levels were analyzed with each sample set. The following samples were also analyzed either in conjunction with one of the precision and accuracy runs or in one of the additional validation runs: Samples from six lots of control dog plasma for specificity. Two concentration levels of unextracted QC-samples in triplicate (solvent standards) were analyzed for the evaluation of the recovery of sodium 2,2-dimethylbutyrate and DMV in dog plasma. Two levels of QC samples (Low QC and High QC in triplicate) were subjected to three freeze/thaw cycles at approximately −70° C. prior to extraction to evaluate freeze/thaw stability. Two levels of QC samples (Low QC and High QC in triplicate) were placed on the bench top for approximately 17 hours prior to extraction for the evaluation of the bench top stability. Triplicate low QC samples and triplicate high QC samples were stored for one month and three months in a freezer at approximately −70° C., and then extracted and analyzed to evaluate long term stability in dog plasma. Three aliquots of a dilution QC sample diluted 10-fold. QC-Low and QC-High plasma samples, which had been stored in a freezer at approximately −70° C. for one month and three months (99 days), were extracted in triplicate and analyzed. All CV % values and RE % values are within the acceptance criteria (≦15% and ±15% respectively). Therefore, sodium 2,2-dimethylbutyrate can be considered stable in dog plasma at approximately −70° C. for at least […].

[2] = assay type: physicochemical, human; details: for Extract freezer stability, Mean concentration / Extract freezer stability, RE % (mean vs nominal): human, 8 h
Experimental: The following samples were also analyzed either in conjunction with one of the precision and accuracy runs or in one of the additional validation runs. Samples from six lots of control human plasma for specificity. Samples from six lots of control human plasma fortified with internal standard for specificity. Two concentration levels of unextracted QC-samples in triplicate (solvent standards) were analyzed for the evaluation of the recovery of sodium 2,2-dimethylbutyrate and DMV in human plasma. Two levels of QC samples (Low QC and High QC in triplicate) were subjected to three freeze/thaw cycles at approximately −70° C. prior to extraction to evaluate freeze/thaw stability. Two levels of QC samples (Low QC and High QC in triplicate) were placed on the bench top for approximately 17 hours prior to extraction for the evaluation of the bench top stability. Triplicate low QC samples and triplicate high QC samples were stored for one month and three months in a freezer at approximately −70° C., and then extracted and analyzed to evaluate long term stability in human plasma. Two levels of extracted QC samples (Low QC and High QC) were re-analyzed after approximately 71 hours in the autosampler at room temperature to evaluate the extract autosampler stability. Two levels of extracted QC samples (Low QC and High QC) were re-analyzed after approximately 8 hours in the freezer at approximately −20° C. to evaluate the extract freeze stability. Three aliquots of a dilution QC sample diluted 10-fold. Triplicate dilutions of the old stock solution (stored at approximately 4° C.) and new stock solutions prepared at intervals of two weeks and one month. Statistical calculations in the report tables were calculated from unrounded concentration values taken directly from the raw data. The concentration values were rounded for display purposes.
QC-Low and QC-High extract samples in triplicate were analyzed and then stored in a −20° C. freezer for approximately 8 hours. These QC samples were then re-analyzed to evaluate the extract freezer stability. The CV % values for the QC-Low and QC-High stability samples are 8.6% and 1.2%, respectively. To calculate the RE %, the measured mean concentration was compared to the nominal concentration. The RE % values for the QC-Low and QC-High stability samples are −6.3% and −13.0%, respectively.

[3] = 1 Month Interval, QC-High, nominal 40.0 μg/mL
[4] = 1 Month Interval, QC-Low, nominal 0.60 μg/mL
[5] = 3 Month Interval (99 days), QC-High, nominal 40.0 μg/mL
[6] = 3 Month Interval (99 days), QC-Low, nominal 0.60 μg/mL

CCC(C)(C)C(=O)[O-].[Na+] [Sodium 2,2-Dimethylbutyrate]
Time stable in freezer [1]: at least 99 days
Long-term freezer stability, Mean concentration [1, 3]: 36.1 µg/mL
Long-term freezer stability, RE % (mean vs nominal) [1, 3]: −9.9%
Long-term freezer stability, concentration found (replicate) [1, 3]: 36.4 µg/mL and 36.3 µg/mL and 35.5 µg/mL
Long-term freezer stability, Mean concentration [1, 4]: 0.575 µg/mL
Long-term freezer stability, RE % (mean vs nominal) [1, 4]: −4.2%
Long-term freezer stability, concentration found (replicate) [1, 4]: 0.586 µg/mL and 0.567 µg/mL and 0.572 µg/mL
Long-term freezer stability, Mean concentration [1, 5]: 35.0 µg/mL
Long-term freezer stability, RE % (mean vs nominal) [1, 5]: −12.5%
Long-term freezer stability, concentration found (replicate) [1, 5]: 36.1 µg/mL and 37.1 µg/mL and 31.7 µg/mL
Long-term freezer stability, Mean concentration [1, 6]: 0.61 µg/mL
Long-term freezer stability, RE % (mean vs nominal) [1, 6]: 1.0%
Long-term freezer stability, concentration found (replicate) [1, 6]: 0.629 µg/mL and 0.621 µg/mL and 0.568 µg/mL
Time stable in the extract in the freezer ([2]; human plasma extract, freezer at −20° C.): at least 8 hours
Extract freezer stability, Mean concentration ([2]; 0.6 μg/mL): 0.562 µg/mL
Extract freezer stability, RE % (mean vs nominal) ([2]; 0.6 μg/mL): −6.3%
Extract freezer stability, Mean concentration ([2]; 40 μg/mL): 34.8 µg/mL
Extract freezer stability, RE % (mean vs nominal) ([2]; 40 μg/mL): −13.0%
